Assay results from patent publication US20050065348A1, “Pyridin-2-yl-methylamine derivatives for treating opioid dependence” (priority 2001, published 2005).
Counter-ions that a name gives are not always drawn.

How the values were obtained:
[1] = target: T1, 5-HT1A receptor (Rattus norvegicus, UniProt P19327); test: Affinity for the 5-HT1A receptor (3H-8-OH-DPAT displacement); type: binding; conditions: Tissue: cerebral cortex of rat, average of at least 3 experiments
T1 construct: Tissue: cerebral cortex of rat; from tissue; host or cells: rat cerebral cortex
T1 sequence (P19327 1-422): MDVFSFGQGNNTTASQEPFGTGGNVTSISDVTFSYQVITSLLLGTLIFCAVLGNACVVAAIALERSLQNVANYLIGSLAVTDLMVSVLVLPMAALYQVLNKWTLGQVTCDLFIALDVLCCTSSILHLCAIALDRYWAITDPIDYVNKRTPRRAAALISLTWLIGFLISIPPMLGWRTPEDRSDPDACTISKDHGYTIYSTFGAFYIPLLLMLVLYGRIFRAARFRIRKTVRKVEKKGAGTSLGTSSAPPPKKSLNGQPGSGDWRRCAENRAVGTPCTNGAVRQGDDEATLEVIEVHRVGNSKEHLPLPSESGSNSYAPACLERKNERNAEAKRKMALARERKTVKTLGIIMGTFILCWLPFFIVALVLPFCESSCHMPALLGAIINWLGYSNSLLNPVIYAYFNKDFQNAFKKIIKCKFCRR
Procedure: Measurement of the affinity of compound F and reference products for the 5-HT1A receptor
Study of the bond with the 5-HT1A receptor was carried out according to a standard method (Naunyn-Schmiedeberg's Arch. Pharmaco. 1991, 343, 106). The inhibition constants (Ki) of the products according to the invention were estimated from displacement experiments using the version 4 RADLIG non-linear regression programme of EBDA (Equilibrium Binding Data Analysis) (Biosoft, Cambridge, UK, Mc Pherson, 1985). The dissociation constants of the radioactive ligands used in the calculations are 0.31 nmole for ^3H-8-OH-DPAT. The values of pKi (−logKi) are provided under the form of average±SEM of at least 3 experiments.

[2] = tested on: morphine withdrawal syndrome (hyperalgesia); test: Effects on morphine dependence: naloxone-precipitated withdrawal hyperalgesia (Randall and Selitto nociceptive thresholds); type: in vivo; conditions: rat, s.c. osmotic mini-pumps 2 weeks
Procedure: The products are administered by means of osmotic mini-pumps (model 2ML2; flow rate 5 μl/hr: Alza Corporation, Palo Alto, USA) implanted subcutaneously on the first day of the experiment and extracted two weeks later. The pump is set in place through a transversal incision made in the skin of the dorsal face of the rat, the liberation orifice being directed towards the head.
The compound F is administered at 0.63 mg/rat/day (5.25 mg/ml) in solution in distilled water. […] The pumps implanted in the control animals release 0.12 ml of 0.9% NaCl (saline)/rat/day; the doses referring to the weight of the non salified compound.
The study consists of two phases: a phase of chronic treatment lasting 2 weeks, and a withdrawal phase lasting 1 week.
On the experiment's first day the rats were given implants of two osmotic mini-pumps.
After two weeks of chronic treatment, the withdrawal phase began. After taking base measurements on day 14, all the animals received a sub-cutaneous injection of naloxone at 0.63 mg/kg. Next, 30 minutes, 1 hr, 2 hr, 4 hr, and 8 hr after the injection, another series of measurements was taken. The pumps were extracted after the last measurement at 8 hr after the naloxone injection. A series of measurements was also taken daily 24 hr to 4 days after the naloxone injection. During this withdrawal period, the nociceptive thresholds were measured using the Randall and Selitto method (Arch. Int. Pharmacodyn. 1957, CXI, 409) in which increasing pressure is applied to the back paw until the vocalisation threshold is reached. The results are expressed in grams and a 750 g limit is imposed.
In order to evaluate the nociceptive thresholds, the areas under the curves (AUCs) were determined and processed by a variance analysis (ANOVA). The post-hoc comparisons (i.e. those following the variance analysis when the latter is significant) were made using the Student-Newman-Keuls (SNK) test for comparing groups with each other. A statistically significant effect was defined at p<0.05.

| SMILES | Ki ([1]; read-out: pKi site 5-HT1A (converted)) [nM] | Effect on hyperalgesia / morphine withdrawal syndrome (AUC of nociceptive thresholds) ([2]; co-treatment morphine 5 mg/rat/day + compound 2.5 mg/rat/day, naloxone 0.63 mg/kg s.c., SNK p<0.05 vs control) | pKi site 5-HT1A [1] | AUC of nociceptive thresholds 30 minutes to 4 days after naloxone, versus control animals ([2]; co-treatment morphine 5 mg/rat/day + compound 0.63 mg/rat/day, naloxone 0.63 mg/kg s.c., SNK p>0.05) | AUC of nociceptive thresholds 30 minutes to 4 days after naloxone, compound alone versus control animals ([2]; saline + compound 0.63 mg/rat/day, no morphine, p>0.05) |
| --- | --- | --- | --- | --- | --- |
| Clc1cnn(CCCCN2CCN(c3ncccn3)CC2)c1 [lesopitron, reference compound] | 55 | did not have any detectable effect on the hyperalgesia | – | – | – |
| Cc1ccc(CNCC2(F)CCN(C(=O)c3ccc(F)c(Cl)c3)CC2)nc1 [compound F, (3-Chloro-4-fluorophenyl)-(4-fluoro-4-{[(5-methyl-pyridin-2-yl-methyl)-amino]-methyl}-piperidin-1-yl)-methadone fumarate] | – | – | 9.07 | statistically comparable with those obtained from the control animals | does not induce an effect on its own |
